What was measured:
ER+ PDX lines (BCaPE) = conditions: four CENMP- PDX lines compared with three CENMP+ lines; p=0.02; cited from earlier work
MCF7 cells [1] = assay: Growth assay (Alamar blue) in MCF7 cells with knockdown of DDR genes; format: cell-based, human; conditions: for sensitivity (growth inhibition relative to vehicle treated cells): 100 nM fulvestrant, 1 μM Palbociclib
Description: (§1) ZR75.1 and MCF7 parental cells were from ATCC, 2015 and 2017 respectively, and tested for mycoplasma contamination upon arrival using the Lonza Mycoalert Plus Kit (CAT# LT07-710) as per the manufacturer's instructions, and annually since. Both lines were maintained in RPMI 1640 1X w/ L-glutamine and 1% Penicillin/Streptomycin (Sigma-Aldrich, CAT#P4333—100 mL). Cell lines used for experiments were <20 passages. Transient transfections with esiRNA (Sigma-Aldrich) towards human NEIL2 (CAT#EHU158461), CETN2 (CAT#EHU137031), ERCC1 (CAT#EHU156971), RAD23B (CAT#EHU145881) and POLM (CAT#SASI_Hs02_003344553), or scrambled control used at 50 nmoles/L each were delivered using Polypluys jetPRIME® transfection reagent (CAT#114-07) as per the manufacturer's instructions. Cells were plated for experiments 48 hrs after transfection. Stable selection with puromycin after infection with lentivirus harboring RNAi oligos (ABM) against human NEIL2 (CAT#i014980a), CETN2 (CAT#i004479a), and ERCC1 (CAT#i007023a) or scrambled control (CAT#i000238c) was conducted using manufacturer's protocol. Growth assays were repeated independently in triplicate as previously reported (50) using Alamar blue to detect cell viability. Final readings were between 4-6 days after initial drug treatment and fold change plotted for analysis. Fulvestrant(Fisher Scientific CAT#506242), 4-OHT(Sigma-Aldrich CAT#H7904), Palbociclib (ThermoFisher CAT#508548) and Abemaciclib (ThermoFisher CAT#NC0577560), dissolved in DMSO, and β-estradiol (Sigma-Aldrich CAT#E2758-1G), dissolved in water, at 10 mmoles/L were stored long term at −80 C with working stocks at −20 C. Cells were treated 24 hours after plating with fresh drug added every 48 hrs until the end of the experiment. Estradiol addition experiments were conducted in phenol red-free DMEM with 10% charcoal stripped serum.

ZR-75 cells = assay: Growth assay (Alamar blue) in ZR-75 cells with knockdown of DDR genes; format: cell-based, human; conditions: siCETN2, siNEIL2 and siERCC1 ZR-75 cells (transient siRNA) vs siScr; media containing full serum
Description: as §1, with “Fulvestrant(Fisher Scientific CAT#506242), 4-OHT(Sigma-Aldrich CAT#H7904), Palbociclib (ThermoFisher CAT#508548) and Abemaciclib (ThermoFisher CAT#NC0577560), dissolved in DMSO, and β-estradiol (Sigma-Aldrich CAT#E2758-1G), dissolved in water, at 10 mmoles/L were stored long term at −80 C with working stocks at −20 C. Cells were treated 24 hours after plating with fresh drug added every 48 hrs until the end of the experiment. Estradiol addition experiments were conducted in phenol red-free DMEM with 10% charcoal stripped serum.” left out

MCF7 cells [2] = assay: Ki67 immunofluorescence in MCF7 cells before and after fulvestrant treatment; format: cell-based, human; conditions: siCETN2, siNEIL2, siERCC1 MCF7 cells vs siScr control; 100 nM fulvestrant, 48 hours
Description: (§2) FIGS. 17A-17E. Dysregulation of CETN2, NEIL2 and ERCC1 expression in ER+ breast cancer cells alters regulation of G1/S transition of the cell cycle. FIG. 17A & FIG. 17D) Histograms representing percentage of siScr, siCETN2, siNEIL2, siERCC1 and siMLH1 MCF7 cells that are Ki67 (FIG. 17A) and PCNA (FIG. 17D) positive after 48 hours of treatment with 100 nM of fulvestrant. Columns represent the mean and error bars the standard deviation. Student's t-test determined p-values. FIG. 17B-FIG. 17C) Boxplots indicating levels of CDK4 mRNA and PCNA protein level in CETN2, ERCC1, NEIL2, PRKDC proficient (CEN+PRKDCwt) and deficient (CEN-PRKDCmut) ER+ breast tumors based on values from microarray and RPPA data from TCGA. Wilcoxon Rank Sum test determined p-values. FIG. 17E) Histograms depicting percent growth inhibition in fulvestrant and abemaciclib (CDK4/6i)-treated MCF7 cells stably selected for RNAi-mediated knockdown of control, CETN2, ERCC1 or NEIL2, relative to vehicle treated cells. […] Student's t-test determined p-values.
(§3) RNA from cell lines was extracted using the Qiagen RNeasy Mini Kit (CAT#74106) and converted to cDNA using Bio-Rad Reverse Transcriptase iScript (CAT#TX1708891BAY), both following manufacturers' instructions. cDNA was quantified by qPCR using Bio-Rad SsoAdvanced Universal SYBR Green supermix (CAT#17525272) at the manufacturers specifications. […]

MCF7 cells [3] = assay: FACS analysis for PCNA in MCF7 cells after fulvestrant treatment; format: cell-based, human; conditions: MCF7 cells with stable knockdown of CETN2, NEIL2, ERCC1 and MLH1 relative to control cells; 100 nM fulvestrant
Description: as §2, §3

Compound	tumor viability after treatment (AUC) (ER+ PDX lines (BCaPE))	growth phenotype under treatment (MCF7 cells [1]; MCF7 cells stably selected with lentiviral RNAi against CETN2, NEIL2, ERCC1)	growth response to treatment (MCF7 cells [1]; MCF7 cells with siRNA knockdown of negative control genes RAD23B and POLM)	sensitivity (growth inhibition relative to vehicle treated cells) (MCF7 cells [1]; MCF7 cells with stable knockdown of CETN2, NEIL2 or ERCC1)	sensitivity (growth inhibition relative to vehicle treated cells) (MCF7 cells [1]; control MCF7 cells (scrambled RNAi))	growth inhibition in response to treatment (MCF7 cells [1]; siCETN2, siNEIL2 and siERCC1 MCF7 cells (transient siRNA) vs siScr, media containing full serum)	growth inhibition in response to treatment (ZR-75 cells)	Ki67 inhibition in response to treatment (MCF7 cells [2])	PCNA positivity after treatment (MCF7 cells [3])
CC(C)(C#N)c1cc(Cn2cncn2)cc(C(C)(C)C#N)c1 [anastrozole]	significantly higher tumor viability	–	–	–	–	–	–	–	–
C[C@]12CC[C@@H]3c4ccc(O)cc4C[C@@H](CCCCCCCCC[S+]([O-])CCCC(F)(F)C(F)(F)F)[C@H]3[C@@H]1CC[C@@H]2O (stereo partly drawn) [fulvestrant, Fulvestrant]	–	Fulvestrant-independent	did not alter growth response	resistance	comparable sensitivity	significant lack of growth inhibition	significant lack of growth inhibition	profound lack of Ki67 inhibition	Increased PCNA positivity

Source: US20220249476A1, “MutL LOSS PREDICTS SENSITIVITY TO CDK4/6 INHIBITORS IN CANCER” (Baylor College of Medicine, priority 2018, published 2022)
